How the values were obtained:
mGluR5 receptor [1] = target: T1, mGluR5 receptor (Sus scrofa, UniProt I3LUI7); test: Inhibition of [^3H]-MPEP binding in the mGluR5 receptor binding assay (pig brain homogenate); settings: 5 nM [^3H]-MPEP; for inhibition at 1 µM: 1 μM test compound; for inhibition at 10 µM: 10 μM test compound
T1 construct: pig brain hemispheres without medulla, cerebellum and pons ... differential centrifugation at 900×g and 40,000×g
Procedure: I. Method for Determining the Inhibition of [^3H]-MPEP Binding in the mGluR5 Receptor Binding Assay […]
The batches are then filtered with the assistance of a Brandel Cell Harvester (Brandel, Robotic 9600 model) on Unifilter plates with glass filter mats (Perkin Elmer, order number 6005177) and then washed 3 times with buffer (as above) using 250 μl per sample. The filter plates are then dried for 60 min at 55° C. Then 30 μl of Ultima Gold™ scintillating material (Packard BioScience, order number 6013159) is added per well and after 3 hours the samples are measured using the β counter (Microbeta, Perkin Elmer). Nonspecific binding is determined by the addition of 10 μM MPEP (Tocris, order number 1212).

mGluR5 receptor [2] = target: T2, mGluR5 receptor (Homo sapiens, UniProt P41594); test: Functional Ca^2+ influx assay in the mGluR5 receptor assay (CHO-hmGluR5 cells, DHPG 10 μM); format: cell-based; settings: Ki=IC50/(1+(AGconc./EC50))
T2 construct: host or cells: CHO cells (CHO-hmGluR5), incubated overnight with doxycycline
Source text: II. Method for Determining Ca^2+ Influx in the mGluR5 Receptor Assay
[…] According to this assay, intracellular Ca^2+ release is quantified after activation of the mGluR5 receptor with the assistance of a Ca^2+-sensitive dye (type Fluo-4, Molecular Probes Europe BV, Leiden, Netherlands) in a FlexStation (Molecular Devices, Sunnyvale, USA).
Description of the Functional Ca^2+ Influx Assay
20,000 CHO-hmGluR5 cells/well (Euroscreen, Gosselies, Belgium) are pipetted out into 96 well plates (BD Biosciences, Heidelberg, Germany, Ref. 356640, clear bottom, 96 well, poly-D-lysine) and incubated overnight in HBSS buffer (Gibco No. 14025-050) with the following additives: 10% FCS (GIBCO, 10270-106) and doxycycline (BD Biosciences Clontech 631311 600 ng/ml).
For the purpose of functional investigation, the cells were loaded with 2 μM Fluo-4 and 0.01 vol. % Pluronic F127 (Molecular Probes Europe BV, Leiden, Netherlands) in HBSS buffer (Hank's buffered saline solution, Gibco Invitrogen GmbH, Karlsruhe, Germany) with Probenicid (Sigma P8761, 0.69 mg/ml) for 30 min at 37° C.
The cells are then washed 3 times with washing buffer (HBSS buffer, Gibco No. 14025-050, with Probenicid (Sigma P8761, 0.69 mg/ml) and then resuspended with the same buffer to make up to 100 μl. After 15 min, the plates are transferred for determination of Ca^2+ measurements in the presence of DHPG ((S)-3,5-dihydroxyphenylglycine, Tocris Biotrend Chemikalien GmbH, Cologne, Germany, final DHPG concentration: 10 μM) and in the presence or absence of test substances into a FLuorometric Imaging Plate Reader (FLIPR, Molecular Devices, Sunnyvale, Calif.).
Ca^2+-dependent fluorescence is measured before and after addition of test substances. Quantification proceeds by measuring the highest fluorescence intensity over time.
After recording a fluorescence baseline for 10 s, 50 μl of test substance solution (various test substance concentrations in HBSS buffer with 1% DMSO and 0.02% Tween 20, Sigma) are added and the fluorescence signal is measured for 6 min. Then, 50 μl of DHPG solution ((S)-3,5-dihydroxyphenylglycine, Tocris Biotrend Chemikalien GmbH, Cologne, Germany, final DHPG concentration: 10 μM) are added and Ca^2+ influx is simultaneously measured for 60 s. The final DMSO concentration amounts to 0.25% and the final Tween 20 content amounts to 0.005%. The data are analysed with Microsoft Excel and GraphPad Prism. The dose-response curves are calculated with non-linear regression and IC50 values are determined. Each data point is determined in triplicate and IC50 values are averaged from a minimum of 2 independent measurements.
Ki values are calculated using the following formula: Ki=IC50/(1+(AGconc./EC50)).
AGconc.=10 μM; EC50 corresponds to the DHPG concentration which is necessary for the semimaximal influx of Ca^2+.

T2 sequence (P41594 21-1212): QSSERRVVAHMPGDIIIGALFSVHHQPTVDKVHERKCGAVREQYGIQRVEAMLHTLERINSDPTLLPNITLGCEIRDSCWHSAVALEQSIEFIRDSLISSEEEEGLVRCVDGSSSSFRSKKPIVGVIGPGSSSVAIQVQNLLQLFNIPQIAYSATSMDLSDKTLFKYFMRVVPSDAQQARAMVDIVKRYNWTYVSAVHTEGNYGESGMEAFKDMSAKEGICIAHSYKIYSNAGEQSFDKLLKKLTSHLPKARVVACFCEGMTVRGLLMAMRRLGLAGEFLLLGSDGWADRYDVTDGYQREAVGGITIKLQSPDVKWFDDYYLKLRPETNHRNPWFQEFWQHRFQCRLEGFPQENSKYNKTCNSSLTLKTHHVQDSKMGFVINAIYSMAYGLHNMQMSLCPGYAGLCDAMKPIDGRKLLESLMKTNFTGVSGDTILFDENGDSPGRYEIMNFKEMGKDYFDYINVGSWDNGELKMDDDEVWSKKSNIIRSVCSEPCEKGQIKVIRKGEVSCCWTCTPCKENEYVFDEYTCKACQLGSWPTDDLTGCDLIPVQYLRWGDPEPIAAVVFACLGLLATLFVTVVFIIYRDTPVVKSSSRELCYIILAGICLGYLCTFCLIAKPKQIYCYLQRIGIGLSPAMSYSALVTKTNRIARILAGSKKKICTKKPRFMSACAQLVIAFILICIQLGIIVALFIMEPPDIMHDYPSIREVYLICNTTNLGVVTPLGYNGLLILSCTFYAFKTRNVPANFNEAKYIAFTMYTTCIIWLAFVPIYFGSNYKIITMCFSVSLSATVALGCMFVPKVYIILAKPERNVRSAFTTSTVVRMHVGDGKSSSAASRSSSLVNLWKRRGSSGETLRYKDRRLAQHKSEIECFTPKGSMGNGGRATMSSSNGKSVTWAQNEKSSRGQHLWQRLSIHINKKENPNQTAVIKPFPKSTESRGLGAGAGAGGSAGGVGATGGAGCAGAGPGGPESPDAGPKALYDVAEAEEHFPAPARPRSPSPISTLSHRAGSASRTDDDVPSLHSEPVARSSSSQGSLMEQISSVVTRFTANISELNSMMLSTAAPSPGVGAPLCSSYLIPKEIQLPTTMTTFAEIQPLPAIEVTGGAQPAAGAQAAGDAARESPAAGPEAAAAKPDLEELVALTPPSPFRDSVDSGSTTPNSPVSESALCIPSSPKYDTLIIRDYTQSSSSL
T1 sequence (I3LUI7 1-1212): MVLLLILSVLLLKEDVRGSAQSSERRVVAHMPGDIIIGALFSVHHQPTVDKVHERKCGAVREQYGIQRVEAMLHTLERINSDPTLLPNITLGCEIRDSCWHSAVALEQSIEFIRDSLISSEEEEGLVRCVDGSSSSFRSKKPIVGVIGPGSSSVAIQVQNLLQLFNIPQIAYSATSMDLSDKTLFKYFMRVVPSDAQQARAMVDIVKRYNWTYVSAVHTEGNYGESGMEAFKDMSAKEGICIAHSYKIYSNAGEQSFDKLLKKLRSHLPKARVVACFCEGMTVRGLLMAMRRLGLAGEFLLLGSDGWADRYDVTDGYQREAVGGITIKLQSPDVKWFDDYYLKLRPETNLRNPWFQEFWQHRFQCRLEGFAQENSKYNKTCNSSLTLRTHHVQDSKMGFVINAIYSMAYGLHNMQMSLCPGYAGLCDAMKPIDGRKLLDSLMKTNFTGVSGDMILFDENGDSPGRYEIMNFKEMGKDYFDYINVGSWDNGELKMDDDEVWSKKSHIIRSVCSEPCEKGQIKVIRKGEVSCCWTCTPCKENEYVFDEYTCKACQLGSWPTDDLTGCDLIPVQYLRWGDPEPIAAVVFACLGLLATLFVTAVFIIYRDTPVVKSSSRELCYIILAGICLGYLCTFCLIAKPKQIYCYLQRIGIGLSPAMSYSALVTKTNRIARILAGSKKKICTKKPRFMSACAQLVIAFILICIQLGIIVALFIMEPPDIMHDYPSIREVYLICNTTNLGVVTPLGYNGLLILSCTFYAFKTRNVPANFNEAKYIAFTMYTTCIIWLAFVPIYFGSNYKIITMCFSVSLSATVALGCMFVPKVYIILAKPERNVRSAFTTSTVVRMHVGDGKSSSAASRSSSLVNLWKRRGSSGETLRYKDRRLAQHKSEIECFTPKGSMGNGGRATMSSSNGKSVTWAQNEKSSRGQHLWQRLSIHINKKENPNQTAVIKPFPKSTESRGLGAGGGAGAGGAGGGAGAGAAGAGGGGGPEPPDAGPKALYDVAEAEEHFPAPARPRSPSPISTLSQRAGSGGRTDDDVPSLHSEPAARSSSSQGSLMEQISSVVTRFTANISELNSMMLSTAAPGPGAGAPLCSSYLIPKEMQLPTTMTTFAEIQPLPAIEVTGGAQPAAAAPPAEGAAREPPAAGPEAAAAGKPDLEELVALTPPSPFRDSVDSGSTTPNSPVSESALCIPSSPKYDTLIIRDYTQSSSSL

IC50 (mGluR5 receptor [1]) | Ki (mGluR5 receptor [2]) | inhibition at 1 µM (mGluR5 receptor [1]) | Compound | other results
5 nM | 4 nM |  | O=C(C#Cc1cccc(Cl)c1)NC1CCCN(c2nccs2)C1 (stereo not drawn) [Example 32, 3-(3-chlorophenyl)-N-(1-(thiazol-2-yl)piperidin-3-yl)-propiolamide] | 
57 nM | 5.2 nM |  | CN(CCN(C)c1nccs1)C(=O)C#Cc1ccccc1 [Example 4, N-Methyl-N-(2-(methyl(thiazol-2-yl)amino)ethyl)-3-phenylpropiolamide] | 
13 nM | 10 nM |  | CN(CCNC(=O)C#Cc1cccc(Cl)c1)c1nc(Br)cs1 [Example 33, N-(2-((4-bromothiazol-2-yl)(methyl)amino)ethyl)-3-(3-chlorophenyl)propiolamide] | 
87 nM | 20.8 nM |  | CN(CCN(C)c1nccs1)C(=O)C#Cc1cccc(C#N)c1 [Example 13, N-methyl-N-(2-(methyl(thiazol-2-yl)amino)ethyl)-3-(3-cyanophenyl)-propiolamide] | 
86 nM | 3.6 nM |  | CCOC(=O)c1csc(N(C)CCNC(=O)C#Cc2cccc(Cl)c2)n1 [Example 26, N-(2-(methyl-(4-ethoxycarbonylthiazol-2-yl)amino)ethyl)-3-(3-chlorophenyl)-propiolamide] | 
2.2 nM | 6.5 nM |  | CN(c1nccs1)C1CN(C(=O)C#Cc2cccc(Cl)c2)C1 [Example 35, 1-(3-(3-Chlorophenyl)propioloyl)-3-(methyl(thiazol-2-yl)amino)azetidine] | 
1.9 nM | 0.4 nM |  | CN(CCNC(=O)C#Cc1cccc(Cl)c1)c1nccs1 [Example 19, N-(2-(Methyl(thiazol-2-yl)amino)ethyl)-3-(3-chlorophenyl)-propiolamide] | 
1860 nM |  |  | CN(CCNc1nccs1)C(=O)C#Cc1ccccc1 [Example 10, N-methyl-N-(2-(thiazol-2-yl)amino)ethyl-3-phenylpropiolamide] | 
 |  | 81% | Cc1cccc(C#CC(=O)NC2CCN(c3nc(C)c(C)s3)C2)c1 (stereo not drawn) [Example 82, N-(1-(4,5-dimethylthiazol-2-yl)pyrrolidin-3-yl)-3-m-tolylpropiolamide] | 
150 nM |  |  | CCOC(=O)c1cnc(N(C)CCNC(=O)C#Cc2cccc(Cl)c2)s1 [Example 25, N-(2-(methyl-(5-ethoxycarbonylthiazol-2-yl)amino)ethyl)-3-(3-chlorophenyl)-propiolamide] | 
 |  | 89% | Cc1cccc(C#CC(=O)NC2CCN(c3ncc(C)s3)C2)c1 (stereo not drawn) [Example 74, N-(1-(5-methylthiazol-2-yl)pyrrolidin-3-yl)-3-m-tolylpropiolamide] | 
 |  |  | Cc1csc(N2CCC(NC(=O)C#Cc3cccs3)C2)n1 (stereo not drawn) [Example 106, N-(1-(4-methylthiazol-2-yl)pyrrolidin-3-yl)-3-(thiophen-2-yl)propiolamide] | inhibition at 10 µM (mGluR5 receptor [1]): 38%
8.3 nM |  |  | Cc1cccc(C#CC(=O)NCCN(C)c2nccs2)c1 [Example 21, N-(2-(methyl(thiazol-2-yl)amino)ethyl)-3-(tol-3-yl)-propiolamide] | 
 |  | 37% | Cc1ccc(C#CC(=O)NC2CCN(c3nc(C(C)(C)C)cs3)C2)cc1 (stereo not drawn) [Example 56, N-(1-(4-tert.-butylthiazol-2-yl)pyrrolidin-3-yl)-3-p-tolylpropiolamide] | 
 |  | 26% | COc1ccc(C#CC(=O)NC2CCN(c3nc(C(C)(C)C)cs3)C2)cc1 (stereo not drawn) [Example 55, N-(1-(4-tert.-butylthiazol-2-yl)pyrrolidin-3-yl)-3-(4-methoxyphenyl)propiolamide] | 
9.5 nM |  |  | CN(CCNC(=O)C#Cc1cccc(Cl)c1)c1nc(Cl)cs1 [Example 37, 3-(3-chlorophenyl)-N-(2-((4-chlorothiazol-2-yl)(methyl)amino)ethyl)propiolamide] | 

IC50 (mGluR5 receptor [1]) | Ki (mGluR5 receptor [2]) | inhibition at 1 µM (mGluR5 receptor [1]) | Compound | other results
77 nM |  |  | Cc1cnc(N(C)CCNC(=O)C#Cc2cccc(Cl)c2)s1 [Example 30, 3-(3-Chlorophenyl)-N-(2-(methyl(5-methylthiazol-2-yl)amino)ethyl)propiolamide] | 
 |  | 26% | COc1cccc(C#CC(=O)NC2CCN(c3ncc(C)s3)C2)c1 (stereo not drawn) [Example 78, 3-(3-methoxyphenyl)-N-(1-(5-methylthiazol-2-yl)pyrrolidin-3-yl)propiolamide] | 
 |  | 56% | Cc1cnc(N2CCC(NC(=O)C#Cc3ccccc3)C2)s1 (stereo not drawn) [Example 76, N-(1-(5-methylthiazol-2-yl)pyrrolidin-3-yl)-3-phenylpropiolamide] | 
 |  | 34% | CC(C)(C)c1csc(N2CCC(NC(=O)C#Cc3cccc(F)c3)C2)n1 (stereo not drawn) [Example 59, N-(1-(4-tert.-butylthiazol-2-yl)pyrrolidin-3-yl)-3-(3-fluorophenyl)propiolamide] | 
38 nM | 1 nM |  | CN(CCNC(=O)C#Cc1ccccc1)c1nccs1 [Example 9, N-(2-(methyl(thiazol-2-yl)amino)ethyl)-3-phenylpropiolamide] | 
 |  | 20% | CC(C)(C)c1csc(N2CCC(NC(=O)C#Cc3cccnc3)C2)n1 (stereo not drawn) [Example 123, N-(1-(4-tert.-butylthiazol-2-yl)pyrrolidin-3-yl)-3-(pyridin-3-yl)propiolamide] | 
20 nM | 4.9 nM |  | CN(CCN(C)c1nccs1)C(=O)C#Cc1cccc(Cl)c1 [Example 18, N-Methyl-N-(2-(methyl(thiazol-2-yl)amino)ethyl)-3-(3-chlorophenyl)-propiolamide] | 
16 nM |  |  | CN(CCNC(=O)C#Cc1cccc(Cl)c1)c1ncc(F)s1 [Example 126, 3-(3-Chlorophenyl)-N-(2-((5-fluorothiazol-2-yl)(methyl)amino)ethyl)propiolamide] | 
86 nM | 14.4 nM |  | O=C(C#Cc1ccccc1)NC1CCCN(c2nccs2)C1 (stereo not drawn) [Example 15, 3-Phenyl-N-(1-(thiazol-2-yl)piperidin-3-yl)propiolamide] | 
 |  |  | Cc1cnc(N2CCC(NC(=O)C#Cc3cccs3)C2)s1 (stereo not drawn) [Example 113, N-(1-(5-methylthiazol-2-yl)pyrrolidin-3-yl)-3-(thiophen-2-yl)propiolamide] | inhibition at 10 µM (mGluR5 receptor [1]): 22%
2780 nM |  |  | CN(CCNC(=O)C#Cc1cccc(Cl)c1)c1nc2ccccc2s1 [Example 24, N-(2-(benzo[d]thiazol-2-yl(methyl)amino)ethyl)-3-(3-chlorophenyl)-propiolamide] | 
 |  | 41% | Cc1nc(N2CCC(NC(=O)C#Cc3cccc(C(F)(F)F)c3)C2)sc1C (stereo not drawn) [Example 85, N-(1-(4,5-dimethylthiazol-2-yl)pyrrolidin-3-yl)-3-(3-(trifluoromethyl)phenyl)-propiolamide] | 
20 nM |  |  | COC(=O)c1cnc(N(C)CCNC(=O)C#Cc2cccc(Cl)c2)s1 [Example 34, methyl 2-((2-(3-(3-chlorophenyl)-propiolamido)ethyl)(methyl)amino)thiazole-5-carboxylate] | 
26 nM | 4.8 nM |  | Cc1cccc(C#CC(=O)N(C)CCN(C)c2nccs2)c1 [Example 7, N-methyl-N-(2-(methyl(thiazol-2-yl)amino)ethyl)-3-(3-methylphenyl)-propiolamide] | 
 |  | 28% | CC(C)(C)c1csc(N2CCC(NC(=O)C#Cc3ccccc3F)C2)n1 (stereo not drawn) [Example 61, N-(1-(4-tert.-butylthiazol-2-yl)pyrrolidin-3-yl)-3-(2-fluorophenyl)propiolamide] | 

From US7871999B2, “Substituted thiazoles and their use for producing drugs” (Gruenenthal GmbH, priority 2005, dated 2011)
